# Test results: US11814688B2, “Markers for determining tumor hypoxia” (VIB VZW, priority 2015, dated 2023)
# B1: sFlk1: soluble Flk1, VEGF inhibitor, overexpressed from a hydrodynamically injected plasmid (protein, UniProt P35918 20-762, looked up)
# extracellular domain: ASVGLPGDFLHPPKLSTQKDILTILANTTLQITCRGQRDLDWLWPNAQRDSEERVLVTECGGGDSIFCKTLTIPRVVGNDTGAYKCSYRDVDIASTVYVYVRDYRSPFIASVSDQHGIVYITENKNKTVVIPCRGSISNLNVSLCARYPEKRFVPDGNRISWDSEIGFTLPSYMISYAGMVFCEAKINDETYQSIMYIVVVVGYRIYDVILSPPHEIELSAGEKLVLNCTARTELNVGLDFTWHSPPSKSHHKKIVNRDVKPFPGTVAKMFLSTLTIESVTKSDQGEYTCVASSGRMIKRNRTFVRVHTKPFIAFGSGMKSLVEATVGSQVRIPVKYLSYPAPDIKWYRNGRPIESNYTMIVGDELTIMEVTERDAGNYTVILTNPISMEKQSHMVSLVVNVPPQIGEKALISPMDSYQYGTMQTLTCTVYANPPLHHIQWYWQLEEACSYRPGQTSPYACKEWRHVEDFQGGNKIEVTKNQYALIEGKNKTVSTLVIQAANVSALYKCEAINKAGRGERVISFHVIRGPEITVQPAAQPTEQESVSLLCTADRNTFENLTWYKLGSQATSVHMGESLTPVCKNLDALWKLNGTMFSNSTNDILIVAFQNASLQDQGDYVCSAQDKKTKKRHCLVKQLIILERMAPMITGNLENQTTTIGETIEVTCPASGNPTPHITWFKDNETLVEDSGIVLRDGNRNLTIRRVRKEDGGLYTCQACNVLGCARAETLFIIEGAQEKTNLE
# modifications: extracellular domain
# Key:
# [1] = tested on: MCF7 cells; experiment: LC/MS analysis of global 5hmC levels in MCF7 cells; format: cell-based, human; details: 24 hours
# [2] = tested on: HIFs; experiment: HIF stabilization and hypoxia response program (Western blot, RT-qPCR) in MCF7 cells; format: cell-based, human; details: IOX2 50 μM
# Experimental: Cell culture: Cells were cultured as described in the Supplemental Experimental Procedures. […] Where indicated, IOX2 (50 μM) or dimethyl α-ketoglutarate (2 mM) were added to fresh culture medium, using an equal volume of carrier (DMSO) as control for IOX2. Cells were plated at a density tailored to reach 80-95% confluence at the end of the treatment. Fresh medium was added to the cells just before the hypoxia exposure. For glutamine-free culture experiments, dialysed FBS was added to glutamine-free DMEM, and supplemented with glutamine (4 mM) for control. Extraction of DNA, RNA, proteins or metabolites was done 24 hours after the start of treatment, unless indicated otherwise. […]
# RT-qPCR: For RNA extractions, cell culture medium was removed, TRIzol (Life Technologies) added and processed according to guidelines. […] Thermal cycling and fluorescence detection were done on a LightCycler 480 Real-Time PCR System (Roche), and differential expression calculated using the ΔΔCt method (Schmittgen and Livak, 2008). […]
# TET mRNA concentrations and hypoxia marker gene induction: mRNA concentration analysis and statistics: Ct values were determined for each sample and gene of interest in technical duplicates, and normalized according to the corresponding amplification efficiency. […] Concentrations were expressed as averages of at least 5 independent biological replicates. […]
# [3] = tested on: PHDs; details: cited from earlier work
# [4] = molecular target: recombinant purified Tet1 enzyme (Mus musculus, UniProt Q3URK3); experiment: DNA hydroxymethylation assay using purified TET enzyme at different O2 concentrations; details: conversion of 5mC to 5hmC on genomic DNA, 3 min reaction
# [5] = tested on: breast tumors of MMTV-PyMT mice; experiment: sFlk1 overexpression by hydrodynamic plasmid injection in MMTV-PyMT mice; format: in vivo, mouse
# Experimental: Murine cancer models: Animal experiments received local ethical approval (P098/2014). Animals were intercrossed and maintained as described in Supplemental Experimental Procedures. Mammary tumors were harvested at 16 weeks from Tg(MMTV-PyMT) and Tg(MMTV-PyMT); Phd2−/+ mice. For Flk1-overexpression studies, tumors allowed to develop for 11 weeks. Subsequently, 2.5 μg of plasmid (sFlk1-overexpressing or empty p156RRL2 vector) per gram of mouse body weight was introduced in the blood stream using hydrodynamic injections (Liu et al., 1999). sFlk1 overexpression was monitored at 4 days after injection and at sacrifice ([…]), by eye bleeds followed by an enzyme-linked immunosorbent assay for sFlk1 (R&D Systems, Abingdon, UK) in blood plasma. At 12 weeks of age, mice were sacrificed and mammary tumors harvested blinded for treatment. For the Phd2^+/− experiments, male Tg(MMTV-PyMT) FVB mice were intercrossed with female Phd2^−/+ mice, yielding litters of which half have either a Tg(MMTV-PyMT) genotype or a Tg(MMTV-PyMT); Phd2^−/+ genotype. For the Phd2^wt/fl experiments, male Tg(MMTV-PyMT) FVB mice were intercrossed with female Tie2-cre; Phd2^wt/fl mice as described (Kuchnio et al 2015), yielding litters of which half have either a Tie2-cre; Tg(MMTV-PyMT); Phd2^wt/wt genotype or a Tie2-cre; Tg(MMTV-PyMT); Phd2^−/+ genotype. At 16 weeks of age, female mice were sacrificed and mammary tumors harvested.
# Targeted deep BS-seq: As no murine capture kit was available for targeted BSseq, a specific ampliconBS was developed for a set of 15 tumor suppressor gene promoters and 5 oncogene promoters. More specifically, DNA was bisulfite-converted using the Imprint DNA modification kit and amplified using the MegaMix Gold 2× mastermix and validated primer pairs. Per sample, PCR products were mixed to equimolar concentrations, converted into sequencing libraries using the NEBNext DNA library prep master mix set and sequenced to a depth of ˜500×. Mapping and quantification were done as described for SeqCapEpi. The average and variance of methylation level M values in normal mammary glands were used as baseline, and amplicons displaying over 3 standard deviations more methylation (FDR-adjusted P<0.05) than this baseline were called as hypermethylated. At least 9 different tumors, each from different animals, were profiled per genotype or treatment, and differences in HM frequencies between sets of tumors were assessed using Mann-Whitney's U-test.
# Immunofluorescence staining: To mark hypoxic areas, mice were injected with pimonidazole (60 mg/kg, Hypoxyprobe, Massachusetts, USA) i.p. 1 hour before sacrifice. Tumors were harvested, fixed in formaldehyde and embedded in paraffin using standard procedures. Slides were deparafinated and rehydrated 2 xylene baths (5 minutes), followed by 5 times 3 minutes in EtOH baths at decreasing concentrations (100%, 96%, 70%, 50% and water) and a 3 minute Tris-buffered saline (TBS; 50 mM Tris, 150 mM NaCl, pH 7.6) bath. The following antibodies were used for immunofluorescence staining: primary antibodies were FITC-conjugated mouse anti-pimonidazole (HP2-100, Hydroxyprobe), rabbit anti-5hmC (39791, Active Motif), rat anti-polyoma middle T (AB15085, Abcam), rat anti-CD31 (557355, BD Biosciences), rat anti-CD45 (553076, BD Biosciences), rabbit anti-Ki67 (AB15580, Abcam) and mouse anti-pan cytokeratin (C2562, Sigma). […]
# recombinant purified Tet1 enzyme, sequence (Q3URK3 1367-2039 limits assumed): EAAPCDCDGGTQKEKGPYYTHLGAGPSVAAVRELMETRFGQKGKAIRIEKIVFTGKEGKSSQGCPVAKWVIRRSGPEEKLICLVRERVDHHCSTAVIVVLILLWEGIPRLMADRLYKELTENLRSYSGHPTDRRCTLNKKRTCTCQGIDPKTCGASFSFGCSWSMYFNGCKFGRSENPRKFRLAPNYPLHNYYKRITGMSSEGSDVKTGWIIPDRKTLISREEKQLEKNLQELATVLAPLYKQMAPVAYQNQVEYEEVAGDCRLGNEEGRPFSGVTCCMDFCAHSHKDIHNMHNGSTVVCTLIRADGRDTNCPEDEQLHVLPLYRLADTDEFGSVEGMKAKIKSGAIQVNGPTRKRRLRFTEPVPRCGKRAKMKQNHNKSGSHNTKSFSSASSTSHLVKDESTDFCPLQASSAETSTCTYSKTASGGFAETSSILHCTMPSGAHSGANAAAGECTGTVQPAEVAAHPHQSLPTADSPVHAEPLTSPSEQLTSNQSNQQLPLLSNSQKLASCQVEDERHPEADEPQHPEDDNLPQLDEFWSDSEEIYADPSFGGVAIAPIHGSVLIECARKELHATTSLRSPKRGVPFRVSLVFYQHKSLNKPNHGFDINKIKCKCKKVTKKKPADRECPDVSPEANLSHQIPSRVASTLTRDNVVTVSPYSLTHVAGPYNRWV
molecule,measurement,setting,value
O=C(O)CNC(=O)c1c(O)c2ccccc2n(Cc2ccccc2)c1=O [IOX2],changes in global 5hmC levels,"[1]; IOX2 50 μM, carrier DMSO as control",no changes
same,HIF stabilization and activation of the hypoxia response program,[2],sufficient to stabilize HIFs and activate the hypoxia response program
same,specificity for PHDs over other αKG-dependent dioxygenases,[3],high specificity
O=O [oxygen],Km of Tet1 for oxygen,[4],~0.3 % O2
"COC(=O)CCC(=O)C(=O)OC [αKG, dimethyl α-ketoglutarate]",changes in global 5hmC levels,[1]; dimethyl α-ketoglutarate 2 mM added to medium,Neither of these conditions however altered 5hmC levels
B1,tumor hypoxia (hypoxic area),"[5]; after sFlk1 treatment, 20% in control",47%
same,TSGs hypermethylated relative to control in at least one out of 24 hypoxic tumors,"[5]; deep BS-sequencing, panel of 15 TSG promoters",10 out of 15
same,hypermethylation of oncogene promoters,"[5]; deep BS-sequencing, sFlk-treated tumors",failed to display the same increase
same,increase in plasma sFlk1 concentrations,"[5]; during 3 weeks after hydrodynamic injection of sFlk1-expressing plasmid, versus empty plasmid",> 11 fold
same,reduction in vessel density,"[5]; tumor vasculature, sFlk1-treated mice",42±10%
